Assay results: US9296723B2, “NAMPT inhibitors” (AbbVie Inc., priority 2012, dated 2016)

Experiments:
NAMPT [1] = target: T1, NAMPT (Homo sapiens, UniProt P43490); assay: Time-Resolved Fluorescence Resonance Energy Transfer (TR-FRET) Binding Assay of NAMPT; conditions: 6.8 nM NAMPT, 200 nM probe, equilibrated 3 hours, no substrates
Summary of the method: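 IC50s come from four-parameter logistic fits of control-normalized Em520/Em495 TR-FRET ratios (Ex 337 nm) against compound concentration. Before reading, enzyme, probe, antibody and compound equilibrated for 3 h at room temperature.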

PC3 cells = assay: NAMPT Cell Proliferation Assay (Cell Titer Glo); type: cell-based; conditions: Homo sapiens, PC-3, 120 h, incubated 5 days, cell viability
Summary of the method: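 Viability measured by Cell Titer Glo luminescence after 5-day exposure of attached PC3 cells to compound, dosed as 10-fold serial dilutions ([…]) in RPMI/10% FBS at 37 °C and 5% CO2. Percent inhibition fitted to sigmoidal dose-response curves for IC50.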

NAMPT [2] = target: T1, NAMPT; assay: TR-FRET Binding Assay of NAMPT with PRPP; conditions: 2 nM NAMPT, 2 nM probe, 200 µM PRPP and 2.5 mM ATP, equilibrated 16 hours
Summary of the method: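 Substrates present: PRPP at 200 µM and ATP at 2.5 mM, final, alongside 2 nM enzyme, 2 nM tracer and 1 nM terbium anti-His donor in 2% DMSO. A 16-hour equilibration preceded the time-resolved FRET read, allowing compounds to be enzymatically modified.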

T1 sequence (P43490 whole entry): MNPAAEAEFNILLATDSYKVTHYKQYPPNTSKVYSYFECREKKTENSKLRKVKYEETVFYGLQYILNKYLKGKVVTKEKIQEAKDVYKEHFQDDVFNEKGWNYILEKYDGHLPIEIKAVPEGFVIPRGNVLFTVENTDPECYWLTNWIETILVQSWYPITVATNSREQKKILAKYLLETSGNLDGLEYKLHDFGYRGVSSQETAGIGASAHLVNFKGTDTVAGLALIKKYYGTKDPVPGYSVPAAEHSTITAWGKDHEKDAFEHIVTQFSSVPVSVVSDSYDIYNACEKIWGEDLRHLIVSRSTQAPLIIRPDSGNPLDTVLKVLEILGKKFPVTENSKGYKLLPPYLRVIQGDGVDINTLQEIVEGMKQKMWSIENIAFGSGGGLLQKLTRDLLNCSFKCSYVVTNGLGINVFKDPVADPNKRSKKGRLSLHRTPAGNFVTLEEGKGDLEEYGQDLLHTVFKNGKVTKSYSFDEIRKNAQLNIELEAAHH

SMILES	IC50 (NAMPT [1]) [nM]	IC50 (PC3 cells) [nM]	IC50 (NAMPT [2]) [nM]
COCCOCC(=O)N1CC(c2ccc(NC(=O)N3CC(c4cccnc4)C3)cc2)C1 [Example 210, N-(4-{1-[(2-methoxyethoxy)acetyl]azetidin-3-yl}phenyl)-3-(pyridin-3-yl)azetidine-1-carboxamide]	206	218	0.356
O=C(Nc1ccc(C2CN(C(=O)C3CCCC3)C2)cc1)N1CC(c2cccnc2)C1 [Example 214, N-{4-[1-(cyclopentylcarbonyl)azetidin-3-yl]phenyl}-3-(pyridin-3-yl)azetidine-1-carboxamide]	75.8	43.7	0.289
COCC(=O)N1CC(c2ccc(NC(=O)N3CC(c4cccnc4)C3)cc2)C1 [Example 218, N-{4-[1-(methoxyacetyl)azetidin-3-yl]phenyl}-3-(pyridin-3-yl)azetidine-1-carboxamide]	171	188	0.451
CCC(=O)N1CC(c2ccc(NC(=O)N3CC(c4cccnc4)C3)cc2)C1 [Example 226, N-[4-(1-propanoylazetidin-3-yl)phenyl]-3-(pyridin-3-yl)azetidine-1-carboxamide]	169	200	0.44
O=C(Nc1ccc(C2CCN(CC3CCCC3)CC2)cc1)N1CC(c2cccnc2)C1 [Example 231, N-{4-[1-(cyclopentylmethyl)piperidin-4-yl]phenyl}-3-(pyridin-3-yl)azetidine-1-carboxamide]	421	361	0.225
CC(C)(C)CCN1CCC(c2ccc(NC(=O)N3CC(c4cccnc4)C3)cc2)CC1 [Example 233, N-{4-[1-(3,3-dimethylbutyl)piperidin-4-yl]phenyl}-3-(pyridin-3-yl)azetidine-1-carboxamide]	653	970	0.335
CC(C)CN1CCC(c2ccc(NC(=O)N3CC(c4cccnc4)C3)cc2)CC1 [Example 235, N-{4-[1-(2-methylpropyl)piperidin-4-yl]phenyl}-3-(pyridin-3-yl)azetidine-1-carboxamide]	649	993	0.213
CCC(CC)CN1CCC(c2ccc(NC(=O)N3CC(c4cccnc4)C3)cc2)CC1 [Example 237, N-{4-[1-(2-ethylbutyl)piperidin-4-yl]phenyl}-3-(pyridin-3-yl)azetidine-1-carboxamide]	581	346	0.257
CC(C)(C)CN1CCC(c2ccc(NC(=O)N3CC(c4cccnc4)C3)cc2)CC1 [Example 238, N-{4-[1-(2,2-dimethylpropyl)piperidin-4-yl]phenyl}-3-(pyridin-3-yl)azetidine-1-carboxamide]	4010	746	1.41
CCC(C)CN1CCC(c2ccc(NC(=O)N3CC(c4cccnc4)C3)cc2)CC1 (stereo not drawn) [Example 239, N-{4-[1-(2-methylbutyl)piperidin-4-yl]phenyl}-3-(pyridin-3-yl)azetidine-1-carboxamide]	1680	1510	0.2
CCCN1CCC(c2ccc(NC(=O)N3CC(c4cccnc4)C3)cc2)CC1 [Example 241, N-[4-(1-propylpiperidin-4-yl)phenyl]-3-(pyridin-3-yl)azetidine-1-carboxamide]	359	252	0.255
O=C(Nc1ccc(C2CCN(CC3CCOC3)CC2)cc1)N1CC(c2cccnc2)C1 (stereo not drawn) [Example 243, 3-(pyridin-3-yl)-N-{4-[1-(tetrahydrofuran-3-ylmethyl)piperidin-4-yl]phenyl}azetidine-1-carboxamide]	1270	1310	0.326
O=C(Nc1ccc(C2CN(CC3CCCCC3)C2)cc1)N1CC(c2cccnc2)C1 [Example 246, N-{4-[1-(cyclohexylmethyl)azetidin-3-yl]phenyl}-3-(pyridin-3-yl)azetidine-1-carboxamide]	437	622	0.213
CC(C)(C)CCN1CC(c2ccc(NC(=O)N3CC(c4cccnc4)C3)cc2)C1 [Example 247, N-{4-[1-(3,3-dimethylbutyl)azetidin-3-yl]phenyl}-3-(pyridin-3-yl)azetidine-1-carboxamide]	871	471	0.304
O=C(Nc1ccc(C2CN(CC3CC3)C2)cc1)N1CC(c2cccnc2)C1 [Example 248, N-{4-[1-(cyclopropylmethyl)azetidin-3-yl]phenyl}-3-(pyridin-3-yl)azetidine-1-carboxamide]	990	1380	0.228
O=C(Nc1ccc(C2CN(CC3CCCO3)C2)cc1)N1CC(c2cccnc2)C1 (stereo not drawn) [Example 250, 3-(pyridin-3-yl)-N-{4-[1-(tetrahydrofuran-2-ylmethyl)azetidin-3-yl]phenyl}azetidine-1-carboxamide]	865	664	0.679
CC(C)CN1CC(c2ccc(NC(=O)N3CC(c4cccnc4)C3)cc2)C1 [Example 251, N-{4-[1-(2-methylpropyl)azetidin-3-yl]phenyl}-3-(pyridin-3-yl)azetidine-1-carboxamide]	382	212	0.365
CC(C)CCN1CC(c2ccc(NC(=O)N3CC(c4cccnc4)C3)cc2)C1 [Example 252, N-{4-[1-(3-methylbutyl)azetidin-3-yl]phenyl}-3-(pyridin-3-yl)azetidine-1-carboxamide]	526	401	0.296
CCC(CC)CN1CC(c2ccc(NC(=O)N3CC(c4cccnc4)C3)cc2)C1 [Example 253, N-{4-[1-(2-ethylbutyl)azetidin-3-yl]phenyl}-3-(pyridin-3-yl)azetidine-1-carboxamide]	538	622	0.207
CCC(C)CN1CC(c2ccc(NC(=O)N3CC(c4cccnc4)C3)cc2)C1 (stereo not drawn) [Example 255, N-{4-[1-(2-methylbutyl)azetidin-3-yl]phenyl}-3-(pyridin-3-yl)azetidine-1-carboxamide]	271	734	0.173
CCC(C)CC(=O)N1CCC(c2ccc(NC(=O)N3CC(c4cccnc4)C3)cc2)C1 (stereo not drawn) [Example 259, N-{4-[1-(3-methylpentanoyl)pyrrolidin-3-yl]phenyl}-3-(pyridin-3-yl)azetidine-1-carboxamide]	54.5	64.7	0.452

The next compounds have a lower IC50 (NAMPT [1]) than those just listed; values first:

IC50 (NAMPT [1]) [nM]	IC50 (PC3 cells) [nM]	IC50 (NAMPT [2]) [nM]	SMILES
52.4	68.3	0.359	CCCCC(=O)N1CCC(c2ccc(NC(=O)N3CC(c4cccnc4)C3)cc2)C1 (stereo not drawn) [Example 258, N-[4-(1-pentanoylpyrrolidin-3-yl)phenyl]-3-(pyridin-3-yl)azetidine-1-carboxamide]
49.1	63.4	0.26	CC(C)(C)C(=O)N1CC(c2ccc(NC(=O)N3CC(c4cccnc4)C3)cc2)C1 [Example 206, N-{4-[1-(2,2-dimethylpropanoyl)azetidin-3-yl]phenyl}-3-(pyridin-3-yl)azetidine-1-carboxamide]
48.6	60.4	0.349	CCC(C)(C)C(=O)N1CC(c2ccc(NC(=O)N3CC(c4cccnc4)C3)cc2)C1 [Example 204, N-{4-[1-(2,2-dimethylbutanoyl)azetidin-3-yl]phenyl}-3-(pyridin-3-yl)azetidine-1-carboxamide]
48.6	73.7	0.473	CC(C)CC(=O)N1CC(c2ccc(NC(=O)N3CC(c4cccnc4)C3)cc2)C1 [Example 208, N-{4-[1-(3-methylbutanoyl)azetidin-3-yl]phenyl}-3-(pyridin-3-yl)azetidine-1-carboxamide]
40.9	20.6	0.464	O=C(CC1CCCCC1)N1CC(c2ccc(NC(=O)N3CC(c4cccnc4)C3)cc2)C1 [Example 212, N-{4-[1-(cyclohexylacetyl)azetidin-3-yl]phenyl}-3-(pyridin-3-yl)azetidine-1-carboxamide]
26	20.7	0.333	O=C(Nc1ccc(C2CN(C(=O)c3ccco3)C2)cc1)N1CC(c2cccnc2)C1 [Example 224, N-{4-[1-(furan-2-ylcarbonyl)azetidin-3-yl]phenyl}-3-(pyridin-3-yl)azetidine-1-carboxamide]
18.4	20.5	0.256	O=C(Nc1ccc(C2CN(C(=O)c3ccoc3)C2)cc1)N1CC(c2cccnc2)C1 [Example 216, N-{4-[1-(furan-3-ylcarbonyl)azetidin-3-yl]phenyl}-3-(pyridin-3-yl)azetidine-1-carboxamide]
10.7	11.9	0.183	O=C(Nc1ccc(C2CN(C(=O)c3cccs3)C2)cc1)N1CC(c2cccnc2)C1 [Example 222, 3-(pyridin-3-yl)-N-{4-[1-(thiophen-2-ylcarbonyl)azetidin-3-yl]phenyl}azetidine-1-carboxamide]
10.4	4.15	0.34	Cc1ccsc1C(=O)N1CC(c2ccc(NC(=O)N3CC(c4cccnc4)C3)cc2)C1 [Example 220, N-(4-{1-[(3-methylthiophen-2-yl)carbonyl]azetidin-3-yl}phenyl)-3-(pyridin-3-yl)azetidine-1-carboxamide]
